Laboratory results: BindingDB's records for doi:10.1016/j.bmcl.2021.127861 (Neuropore Therapies, 2021)

Molecular target: Tumor necrosis factor (Homo sapiens, UniProt P01375)
Assay: Inhibition of TNFalpha (unknown origin) in HEK-Blue-hTLR2 cells assessed as inhibition of TNFalpha-induced NFkappaB activation pretreated for 2 hrs followed by incubation with TNFalpha for 18 hrs by SEAP assay

Chain of Tumor necrosis factor (P01375 whole entry): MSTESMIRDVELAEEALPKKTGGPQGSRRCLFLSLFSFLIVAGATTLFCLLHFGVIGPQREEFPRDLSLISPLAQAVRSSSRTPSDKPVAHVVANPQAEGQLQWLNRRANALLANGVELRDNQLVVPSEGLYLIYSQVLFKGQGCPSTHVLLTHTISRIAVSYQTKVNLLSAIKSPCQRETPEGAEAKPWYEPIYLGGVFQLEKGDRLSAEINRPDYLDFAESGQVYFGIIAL

SMILES | IC50 [µM]
CCCCCCCCCCCCCCOCC(CNC(=O)CC[C@H](NC(=O)OCC1c2ccccc2-c2ccccc21)C(=O)O)OCCCCCCCCCCCCCC (some centres not stated) | > 30
CCCCCCCCCCCCCCOCC(CNC(=O)[C@@H](CCCCN)NCc1ccccc1)OCCCCCCCCCCCCCC (some centres not stated) | > 30
CCCCCCCCCCCCCCOCC(CNC(=O)[C@H](CCCCN)NC(C)=O)OCCCCCCCCCCCCCC (some centres not stated) | > 30
CCCCCCCCCCCCCCOCC(CNC(=O)[C@H]1CC[C@H](N)CC1)OCCCCCCCCCCCCCC (some centres not stated) | > 30
CCCCCCCCCCCCCCOCC(CNC(=O)[C@@H](CCCCN)NC(=O)OCc1ccccc1)OCCCCCCCCCCCCCC (some centres not stated) | > 30
CCCCCCCCCCCCCCOCC(CNC(=O)C1(NC(=O)OCc2ccccc2)CCNCC1)OCCCCCCCCCCCCCC (configuration not stated) | > 30
CCCCCCCCCCCCCCOCC(CNC(=O)[C@H](CCCCN)NCc1ccc(-c2ccccc2)cc1)OCCCCCCCCCCCCCC (some centres not stated) | > 30
CCCCCCCCCCCCCCOCC(CNC(=O)C(CC1CCNCC1)NC(=O)OCC1c2ccccc2-c2ccccc21)OCCCCCCCCCCCCCC (configuration not stated) | > 30
CCCCCCCCCCCCCCOCC(CNC(=O)[C@H](CCCCN)NCc1ccc(F)cc1)OCCCCCCCCCCCCCC (some centres not stated) | > 30
CCCCCCCCCCCCCCOCC(CNC(=O)c1cccc(C2CCNCC2)c1)OCCCCCCCCCCCCCC (configuration not stated) | > 30
CCCCCCCCCCCCCCOCC(CNC(=O)[C@H]1CCCN1)OCCCCCCCCCCCCCC (some centres not stated) | > 30
CCCCCCCCCCCCCCOCC(CNC(=O)[C@H](CCCCN)NCc1ccccc1)OCCCCCCCCCCCCCC (some centres not stated) | > 30
CCCCCCCCCCCCCCOCC(CNC(=O)[C@@H](N)CCCCN)OCCCCCCCCCCCCCC (some centres not stated) | > 30
CCCCCCCCCCCCCCOCC(CNC(=O)[C@H](CCCCN)NC(=O)OCC1c2ccccc2-c2ccccc21)OCCCCCCCCCCCCCC (some centres not stated) | > 30
CCCCCCCCCCCCCCOCC(CNC(=O)CCCCCN)OCCCCCCCCCCCCCC (configuration not stated) | > 30
CCCCCCCCCCCCCCOCC(CNC(=O)c1cccc(N2CCNCC2)c1)OCCCCCCCCCCCCCC (configuration not stated) | > 30
CCCCCCCCCCCCCCOCC(CNC(=O)CCN)OCCCCCCCCCCCCCC (configuration not stated) | > 30
